Assay results reported in ChEMBL document CHEMBL1255556, “6-Alkoxyisoindolin-1-one based dopamine D2 partial agonists as potential antipsychotics” (Bioorg Med Chem Lett, 2010).
pKi: −log10 of the molar value.

Tests used:
[1] = target: T1, 5-hydroxytryptamine receptor 1A (Homo sapiens) (UniProt P08908); assay: Intrinsic activity at human […] 5HT1A receptor expressed in HeLa cells by FLIPR assay; assay type: cell-based
T1 sequence (whole entry): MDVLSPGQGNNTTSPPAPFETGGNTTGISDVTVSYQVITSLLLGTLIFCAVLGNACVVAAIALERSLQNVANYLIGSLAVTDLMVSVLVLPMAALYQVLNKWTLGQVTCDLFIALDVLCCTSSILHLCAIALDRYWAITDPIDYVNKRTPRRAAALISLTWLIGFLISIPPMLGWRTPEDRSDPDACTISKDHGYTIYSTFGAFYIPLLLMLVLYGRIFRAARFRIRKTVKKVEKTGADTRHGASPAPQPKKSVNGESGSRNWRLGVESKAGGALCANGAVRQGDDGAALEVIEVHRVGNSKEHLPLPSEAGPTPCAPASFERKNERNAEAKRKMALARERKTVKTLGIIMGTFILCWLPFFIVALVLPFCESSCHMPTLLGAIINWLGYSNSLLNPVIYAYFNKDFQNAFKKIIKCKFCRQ

[2] = Apparent intrinsic clearance in human liver microsomes; assay type: ADME, Microsome
[3] = test system: Mus musculus; assay: Antipsychotic activity in po dosed mouse assessed as inhibition of spontaneous locomotor activity; assay type: functional; conditions: read-out: MED
[4] = test system: Mus musculus; assay: In vivo intrinsic activity at D2 receptor in mouse brain assessed as inhibition of gamma-butyrolactone-induced increase in DOPA synthesis at 30 mg/kg, po administered 60 mins before gamma-butyrolactone challenge measured after 30 mins; assay type: functional
[5] = test system: Mus musculus; assay: Induction of catalepsy in mouse at 30 mg/kg, po; assay type: organism-based; set-up: dose 30 mg/kg, route oral; conditions: in vivo
[6] = target: 5-hydroxytryptamine receptor 2A (Homo sapiens, UniProt P28223); assay: Binding affinity to human 5HT2A receptor
Chain of 5-hydroxytryptamine receptor 2A (P28223 whole entry): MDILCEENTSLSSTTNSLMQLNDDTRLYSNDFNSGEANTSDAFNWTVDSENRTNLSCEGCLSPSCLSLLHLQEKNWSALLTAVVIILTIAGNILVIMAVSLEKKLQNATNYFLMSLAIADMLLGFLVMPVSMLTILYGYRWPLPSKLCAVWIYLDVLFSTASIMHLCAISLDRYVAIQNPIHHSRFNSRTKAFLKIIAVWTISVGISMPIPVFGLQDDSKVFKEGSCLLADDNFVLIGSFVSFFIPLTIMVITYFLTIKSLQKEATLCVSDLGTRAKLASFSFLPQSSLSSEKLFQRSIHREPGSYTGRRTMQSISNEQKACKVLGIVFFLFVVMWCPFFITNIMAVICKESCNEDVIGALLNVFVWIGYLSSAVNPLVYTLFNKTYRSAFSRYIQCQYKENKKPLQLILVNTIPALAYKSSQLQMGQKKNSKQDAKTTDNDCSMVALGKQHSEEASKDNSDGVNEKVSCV

[7] = target: Voltage-gated inwardly rectifying potassium channel KCNH2 (Homo sapiens, UniProt Q12809)
Chain of Voltage-gated inwardly rectifying potassium channel KCNH2 (Q12809 whole entry): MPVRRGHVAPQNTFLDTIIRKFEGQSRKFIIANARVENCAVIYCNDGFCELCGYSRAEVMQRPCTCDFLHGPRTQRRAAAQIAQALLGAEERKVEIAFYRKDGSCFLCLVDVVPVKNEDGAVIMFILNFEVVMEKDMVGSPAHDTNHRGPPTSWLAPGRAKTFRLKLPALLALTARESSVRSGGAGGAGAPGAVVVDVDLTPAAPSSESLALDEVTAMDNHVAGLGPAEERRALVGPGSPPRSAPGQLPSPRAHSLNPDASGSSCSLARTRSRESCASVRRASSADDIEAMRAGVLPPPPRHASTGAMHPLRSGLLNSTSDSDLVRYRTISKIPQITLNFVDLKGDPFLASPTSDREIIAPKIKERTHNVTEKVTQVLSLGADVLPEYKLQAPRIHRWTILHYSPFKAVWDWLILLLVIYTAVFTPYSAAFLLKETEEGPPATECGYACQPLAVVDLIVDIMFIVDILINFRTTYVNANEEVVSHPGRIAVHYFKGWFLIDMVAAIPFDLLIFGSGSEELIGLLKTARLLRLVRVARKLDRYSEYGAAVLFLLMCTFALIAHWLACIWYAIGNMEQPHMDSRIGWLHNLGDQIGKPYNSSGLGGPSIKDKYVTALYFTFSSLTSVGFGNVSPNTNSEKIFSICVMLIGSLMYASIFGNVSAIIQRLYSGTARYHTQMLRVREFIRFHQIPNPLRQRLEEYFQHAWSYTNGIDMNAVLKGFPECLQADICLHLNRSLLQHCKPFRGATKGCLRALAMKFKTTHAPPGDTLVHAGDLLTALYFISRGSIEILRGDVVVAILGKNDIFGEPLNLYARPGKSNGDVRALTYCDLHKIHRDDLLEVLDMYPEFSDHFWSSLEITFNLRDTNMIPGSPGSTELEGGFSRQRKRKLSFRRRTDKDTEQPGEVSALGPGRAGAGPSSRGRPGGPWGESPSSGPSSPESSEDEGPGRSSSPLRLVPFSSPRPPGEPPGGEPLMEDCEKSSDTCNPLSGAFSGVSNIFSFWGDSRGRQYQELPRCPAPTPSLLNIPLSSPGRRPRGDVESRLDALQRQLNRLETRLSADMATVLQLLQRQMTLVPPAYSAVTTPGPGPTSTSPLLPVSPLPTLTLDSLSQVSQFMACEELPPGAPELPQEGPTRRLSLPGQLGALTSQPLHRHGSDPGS
Description: Displacement of [3H]dofetilide from human ERG

[8] = target: T2, 5-hydroxytryptamine receptor 1A (Homo sapiens, UniProt P08908); assay: biochemical
T2 sequence (P08908 whole entry): T1 sequence (whole entry)
Description: Displacement of [3H]-8-OH-DPAT from human 5HT1A receptor expressed in HeLa cells

[9] = target: T3, Sodium-dependent serotonin transporter (Homo sapiens, UniProt P31645); assay: Displacement of [3H]-citalopram from human serotonin transporter expressed in HEK 293 cells by scintillation proximity assay; assay type: cell-based, HEK293
T3 sequence (P31645 whole entry): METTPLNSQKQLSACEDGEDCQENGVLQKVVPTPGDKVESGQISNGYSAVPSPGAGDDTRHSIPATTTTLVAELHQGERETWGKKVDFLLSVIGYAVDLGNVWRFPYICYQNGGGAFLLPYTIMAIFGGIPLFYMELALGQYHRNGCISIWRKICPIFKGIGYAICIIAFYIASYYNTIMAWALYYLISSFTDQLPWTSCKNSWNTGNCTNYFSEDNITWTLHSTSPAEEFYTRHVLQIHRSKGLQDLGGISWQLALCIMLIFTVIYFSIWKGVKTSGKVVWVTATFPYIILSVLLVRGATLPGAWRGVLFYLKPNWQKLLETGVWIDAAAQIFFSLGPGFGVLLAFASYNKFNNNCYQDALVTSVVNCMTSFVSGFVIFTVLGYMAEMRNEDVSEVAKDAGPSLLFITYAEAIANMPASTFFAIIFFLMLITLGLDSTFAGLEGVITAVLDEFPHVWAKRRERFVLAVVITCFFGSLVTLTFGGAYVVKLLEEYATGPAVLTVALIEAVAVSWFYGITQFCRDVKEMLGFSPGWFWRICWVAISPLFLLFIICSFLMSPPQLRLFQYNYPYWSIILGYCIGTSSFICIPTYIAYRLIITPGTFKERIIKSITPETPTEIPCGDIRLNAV

[10] = target: T2, 5-hydroxytryptamine receptor 1A; assay: Binding affinity to human 5HT1A receptor expressed in HeLa cells by scintillation proximity assay; assay type: cell-based
[11] = target: T3, Sodium-dependent serotonin transporter; assay: Displacement of [3H]-citalopram from human serotonin transporter expressed in HEK 293 cells; assay type: cell-based, HEK293
[12] = target: T1, 5-hydroxytryptamine receptor 1A (Homo sapiens); assay: Intrinsic activity at human […] 5HT1A receptor expressed in HeLa cells by [3H]-thymidine uptake assay; assay type: cell-based

Compound | pKi [6] | pKi [9] | pKi [10] | further results
O=C1CCc2ccc(OCCCCN3CCN(c4cccc(Cl)c4Cl)CC3)cc2N1 [ARIPIPRAZOLE] |  |  |  | Intrinsic activity [1]: 43%; CLint scaled [2]: 31.7 mL/min/kg; minimal effective dose [3]: 3 mg/kg; Intrinsic activity [4]: 43%; Activity [5]: Non-toxic
c1ccc2c(N3CCN(CCCCOc4ccc5c(c4)CNC5)CC3)cccc2c1 | 8.29 |  |  | pKi [7]: 5.81; pKi [8]: 9.69
Cc1cc2c(cc1OCCCCN1CCN(c3cccc4cc(F)ccc34)CC1)C(=O)NC2 | 7.53 | 8.06 | 8.70 | 
Fc1ccc2cccc(N3CCN(CCCCOc4ccc5c(c4)CNC5)CC3)c2c1 | 9.32 |  |  | pKi [7]: 5.77; pKi [8]: 9.61
O=C1NCc2cc(F)c(OCCCN3CCN(c4cccc5cc(F)ccc45)CC3)cc21 | 7.41 | 8.04 | 9.06 | pKi [11]: 7.65
Fc1ccc2cccc(N3CCN(CCCOc4ccc5c(c4)CNC5)CC3)c2c1 | 9.14 |  |  | pKi [7]: 6.03; pKi [8]: 9.99; Intrinsic activity [12]: 73.3%
O=C1NCc2ccc(OCCCCN3CCN(c4cccc5c4CCOC5)CC3)cc21 |  |  |  | pKi [8]: 8.70
Cc1c(OCCCCN2CCN(c3cccc4ccccc34)CC2)ccc2c1C(=O)NC2 | 8.90 | 6.41 | 8.49 | 
O=C1NCc2ccc(OCCCCN3CCN(c4cccc5c4CCCC5)CC3)cc21 | 8.47 |  | 8.72 | 
Cc1cc2c(cc1OCCCN1CCN(c3cccc4cccc(F)c34)CC1)C(=O)NC2 | 7.18 | 6.76 | 8.84 | 
O=C1NCc2ccc(OCCCN3CCN(c4cccc5ccccc45)CC3)c(Cl)c21 | 8.69 | 6.98 | 9.10 | 
Cc1c(OCCCN2CCN(c3cccc4cccc(F)c34)CC2)ccc2c1C(=O)NC2 | 7.79 | 6.36 | 8.67 | 
O=C1NCc2cc(Cl)c(OCCCCN3CCN(c4cccc5ccccc45)CC3)cc21 | 7.61 | 7.02 | 8.63 | 
O=C1NCc2ccc(OCCCN3CCN(c4cccc5cc(F)c(F)cc45)CC3)cc21 | 7.70 |  |  | pKi [7]: 6.04; pKi [8]: 9.75
Cc1c(OCCCN2CCN(c3cccc4ccccc34)CC2)ccc2c1C(=O)NC2 | 8.03 | 6.71 | 9.21 | 
O=C1NCc2cc(F)c(OCCCN3CCN(c4cccc5ccc(F)cc45)CC3)cc21 | 8.57 | 6.38 | 9.47 | pKi [11]: 7.87
O=C1NCc2ccc(OCCCN3CCN(c4cccc5c4OCCC5)CC3)cc21 | 7.60 |  | 10.30 | 
Cc1cc2c(cc1OCCCCN1CCN(c3cccc4cccc(F)c34)CC1)C(=O)NC2 | 7.26 | 6.93 | 8.44 | 
O=C1NCc2ccc(OCCCN3CCN(c4cccc5ccccc45)CC3)c(F)c21 | 8.66 |  | 9.89 | pKi [11]: 7.07
O=C1NCc2ccc(OCCCN3CCN(c4cccc5ccccc45)CC3)cc21 |  |  | 9.27 | Intrinsic activity [1]: 65.9%; pKi [7]: 5.55; pKi [8]: 10.82; Intrinsic activity [12]: 88.8%
Cc1c(OCCCCN2CCN(c3cccc4cc(F)ccc34)CC2)ccc2c1C(=O)NC2 | 7.85 | 7.33 | 7.76 | 
O=C1NCc2cc(F)c(OCCCCN3CCN(c4cccc5cc(F)ccc45)CC3)cc21 | 7.86 | 7.89 | 8.57 | pKi [11]: 8.04
Cc1cc2c(cc1OCCCCN1CCN(c3cccc4ccccc34)CC1)C(=O)NC2 | 7.43 | 6.30 | 9.10 | 
c1ccc2c(N3CCN(CCCOc4ccc5c(c4)CNC5)CC3)cccc2c1 | 8.75 |  |  | pKi [8]: 9.83; Intrinsic activity [12]: 77.8%
O=C1NCc2ccc(OCCCCN3CCN(c4cccc5ccccc45)CC3)c(F)c21 | 8.97 |  | 8.44 | pKi [11]: 5.60
O=C1NCc2cc(Cl)c(OCCCN3CCN(c4cccc5cccc(F)c45)CC3)cc21 | 8.05 | 7.69 | 9.07 | 
Cc1cc2c(cc1OCCCN1CCN(c3cccc4cc(F)ccc34)CC1)C(=O)NC2 | 7.28 | 7.87 | 9.29 | 
O=C1NCc2ccc(OCCCCN3CCN(c4cccc5cc(F)ccc45)CC3)c(F)c21 | 8.51 |  | 8.30 | pKi [11]: 5.57
O=C1NCc2ccc(OCCCCN3CCN(c4cccc5ccc(F)cc45)CC3)c(F)c21 | 8.68 |  | 8.34 | pKi [11]: 6.59
O=C1NCc2ccc(OCCCCN3CCN(c4cccc5cccc(F)c45)CC3)c(Cl)c21 | 8.95 | 6.67 | 8.37 | 
